“Also recorded” adds a separate entry of the source.
What was measured:
mice = assay: Open field test (locomotor activity); format: in vivo; conditions: 1 hour after i.p. drug
Description: Mice were placed into individual open-field arenas (50 cm length×50 cm width×38 cm height; San Diego Instruments, San Diego, Calif., USA) for a 60-min habituation period. Mice were then injected with the respective drug and assessed for locomotor activity for another 60 min. Distance travelled was analyzed using TopScan v2.0 (CleverSys, Inc, Reston, Va., USA).

[1] = Tissue distribution of ketamine and metabolites (plasma and brain levels); conditions: brain
Description: Mice were euthanized by a 30-sec exposure to 3% isoflurane and decapitated at 10, 30, 60, 240 or 480 minutes following drug administration. Trunk blood was collected in EDTA-containing tubes and centrifuged at 8000 rpm for 6 min (4° C.). Plasma was collected and stored at −80° C. until analysis. Whole brains were simultaneously collected, rinsed with phosphate-buffered saline, immediately frozen in dry ice and stored at −80° C. until analysis.
The concentrations of ketamine and its metabolites in plasma and brain tissue were determined by achiral liquid chromatography-tandem mass spectrometry. For plasma samples, the calibration standards for (R,S)-ketamine, (R,S)-norketamine, (2R,6R;2S,6S)-HNK and (R,S)-DHNK ranged from 10,000 ng/ml to 19 ng/ml. The quantification of (R,S)-ketamine, (R,S)-norketamine, (R,S)-DHNK, and the HNK stereoisomers was accomplished by calculating area ratios using D4-ketamine (10 μl of 10 μg/ml solution) as the internal standard. Whole brains were suspended in 990 μl of water:methanol (3:2, v/v), D4-ketamine (10 μl of 10 μg/ml) added and the resulting mixture homogenized on ice with a polytron homogenizer and centrifuged at 21,000×g for 30 min. The supernatant was collected and processed using 1 ml Oasis HLB solid phase extraction cartridges (Waters Corp., Waltham, Mass.). The cartridges were preconditioned with 1 ml of methanol, followed by 1 ml of water and then 1 ml ammonium acetate [10 mM, pH 9.5]. The supernatants were added to the cartridges, followed by 1 ml of water and the compounds were eluted with 1 ml of methanol. The eluent was transferred to an autosampler vial for analysis. QC standards for the analysis of (R,S)-ketamine, (R,S)-norketamine, (R,S)-DHNK and (2R,6R;2S,6S)-HNK ranged from 10,000 ng/ml to 19 ng/ml, and quantification was accomplished using D4-(R,S)-ketamine as the internal standard. QC standards were prepared daily by adding 10 μl of the appropriate standard solution and 10 μl of internal standard solution (100 ng/ml) to methanol.

mTOR = assay: Western blot of synaptoneurosomes, mTOR and phosphorylated mTOR; format: in vivo, mice
Description: To purify synaptoneurosomes, mouse prefrontal cortex or hippocampus were dissected and homogenized in Syn-PER Reagent (ThermoFisher Scientific, Waltham, Mass., USA; Cat #87793) with 1× protease and phosphatase inhibitor cocktail (ThermoFisher Scientific, Waltham, Mass., USA; Cat #78440). The homogenate was centrifuged for 10 min at 1,200×g at 4° C. The supernatant was centrifuged at 15,000×g for 20 min. After centrifugation, the supernatant the pellet (synaptosomal fraction) was re-suspended and sonicated in N-PER Neuronal Protein Extraction Reagent (ThermoFisher Scientific, Waltham, Mass., USA; Cat #87792). For total homogenous tissue lysates, mouse prefrontal cortex or hippocampus were homogenized and sonicated in N-PER Neuronal Protein Extraction Reagent with 1× protease & phosphatase inhibitor cocktail) Protein concentration was determined via the BCA protein assay kit (ThermoFisher Scientific, Waltham, Mass., USA; Cat #23227).
For western blotting, equal amount of proteins (10-40 μg as optimal for each antibody) for each sample were loaded into NuPage 4-12% Bis-Tris gel for electrophoresis. Nitrocellulose membranes with transferred proteins were blocked with 5% milk in TBST (TBS+0.1% Tween-20) for 1 hour and kept with primary antibodies overnight at 4° C. The following primary antibodies were used: phospho-eEF2 (Cell Signaling Technology, Danvers, Mass., USA; Cat #2331), total eEF2 (Cell Signaling Technology, Danvers, Mass., USA; Cat #2332), phospho-mTOR (Cell Signaling Technology, Danvers, Mass., USA; Cat #2971), total mTOR (Cell Signaling Technology, Danvers, Mass., USA; Cat #2983), GluR1 (Cell Signaling Technology, Danvers, Mass., USA; […]), GluR2 (Cell Signaling Technology, Danvers, Mass., USA; Cat #13607), BDNF (Santa Cruz Biotechnology, Dallas, Tex., USA; Cat # sc-546), and GAPDH (Abcam, Cambridge, Mass., USA; Cat # ab8245). The next day, blots were washed three times in PBST and incubated with horseradish peroxidase conjugated anti-mouse or anti-rabbit secondary antibody (1:5000 to 1:10000) for 1 hour. After final three washes with TBST, bands were detected using enhanced chemiluminescence (ECL) with the Syngene Imaging System (G:Box ChemiXX9). After imaging, the blots then were incubated in the stripping buffer (ThermoFisher Scientific, Waltham, Mass., USA; Cat #46430) for 10-15 min at room temperature followed by three time washes with TBST. The stripped blots were washed in blocking solution for 1 hour and incubated with the primary antibody directed against total levels of the respective protein or GAPDH for loading control. Densitometric analysis of phospho- and total immunoreactive bands for each protein was conducted using Syngene's GenTools software Immunoreactivity was normalized to the saline treated control group for each protein.

[2] = hippocampus, 1- or 24-hours post-injection, 10 mg/kg

| SMILES | locomotor activity in the open-field test (mice) | locomotor activity in the open-field test (mice; listed as (R,S)-KET) | locomotor activity in the open-field test (mice; listed as (R,S)-ketamine) | brain levels following ketamine administration, female mice compared to males [1] | mTOR / phosphorylated mTOR synaptoneurosome levels (mTOR; [2]) | mTOR / phosphorylated mTOR synaptoneurosome levels (mTOR; hippocampus, 1- or 24-hours post-injection, 10 mg/kg, listed as (R,S)-ketamine) | mTOR / phosphorylated mTOR synaptoneurosome levels (mTOR; prefrontal cortex) | mTOR / phosphorylated mTOR synaptoneurosome levels (mTOR; prefrontal cortex, listed as (R,S)-KET) | brain hydroxynorketamine levels after administration of (2S,6S)-HNK versus (2R,6R)-HNK [1] | mTOR / phosphorylated mTOR synaptoneurosome levels (mTOR; hippocampus, 1- or 24-hours post-injection, 10 mg/kg, listed as (2R,6R)-hydroxynorketamine) |
| --- | --- | --- | --- | --- | --- | --- | --- | --- | --- | --- |
| CNC1(c2ccccc2Cl)CCCCC1=O (racemic) [ketamine, (R,S)-ketamine, reference compound] | not associated with sex differences in ketamine-induced hyperlocomotion | induced hyper-locomotor responses equally in both male and female mice | equally potent in inducing a hyper-locomotor response | equivalent levels | not observed | did not alter synaptoneurosome levels of mTOR or phosphorylated mTOR | not observed | did not alter | – | – |
| N[C@@]1(c2ccccc2Cl)CCC[C@@H](O)C1=O [(2R,6R)-HNK, (2R,6R)-2-amino-2-(2-chlorophenyl)-6-hydroxycyclohexanone] | did not induce any significant change in locomotion; also recorded: did not induce any stimulant-like hyperlocomotion | – | – | – | not observed | – | not observed; also recorded: did not alter | – | do not result from higher brain levels | did not alter synaptoneurosome levels of mTOR or phosphorylated mTOR |
